In paper PMC12254266, “Multicolored sequential resonance energy transfer for detection of simultaneous ligand binding at G protein-coupled receptors” (Nature Communications, 2025):
Values joined by “and” are separate entries in the source; they are usually repeats but may differ in a detail not shown here. Identical values can stand only once. Each block holds one compound with its values, some of them ahead of it.

Columns and labels:
[1] = molecular target: FFA1 (Homo sapiens, UniProt O14842); assay: Ca2+ mobilisation (Fura2) in Flp-In T-REx 293 cells expressing Nluc-FFA1, FFA1-Nluc or untagged FFA1; type: cell-based; design: expressed in transfected cells; conditions: for pEC50: Ca2+ data, mean±SEM; for pEC50 / EMax: NR = No response; for EMax: percentage of response to 10 μM T360; for Ca2+ Response as a % of T360 Response: single technical replicates
Protocol: Nluc-FFA1, FFA1-Nluc or untagged FFA1 Flp-In T-REx 293 cells were plated at 50,000 cells per well in poly-D-lysine coated black clear bottom 96-well plates. Cells were then cultured for 24 h until reaching confluency before culture medium was replaced with medium containing 100 ng/mL of doxycycline to induce receptor expression. Cells were cultured for a further 24 h before the assay. On the day of the assay culture medium was removed and replaced with medium containing 3 μM Fura2-AM Ca^2+ dye. […] Fura2 fluorescent emission at 520 nm following excitation with each of 340 and 380 nm was measured in regular intervals both before and after adding test compounds for a total of 90 s per well. Calcium responses were determined by taking the peak 340/380 ratio after first subtracting the ratios obtained prior to addition of test compound.

[2] = molecular target: FFA1-Nluc (Homo sapiens, UniProt O14842); assay: DISCo-BRET (endpoint, spectra scan, kinetics) with TUG-2591 and TUG-2597 at C terminal Nluc tagged FFA1; type: binding; design: expressed in transfected cells; conditions: for Specific BRET (690/540), % of control: Figure 4Aiii; for Specific BRET (690/540), % of control / Specific BRET (540/450), % of control: single replicate values (technical duplicate); for Specific BRET (540/450), % of control: Figure 4Biii
Protocol: Nluc-FFA1 or FFA1-Nluc Flp-In T-REx 293 cells were plated at 50,000 cells per well in poly-D-lysine coated white 96-well plates. Cells were cultured for 24 h in the plate before medium was replaced with medium containing 100 ng/mL of doxycycline to induce receptor expression. After culturing for a further 24 h, culture medium was removed, cells washed with HBSS and incubated in HBSS for 30 min. For all DISCo-BRET formats Nano-Glo substrate was then added at a 1:800 final dilution and cells incubated for 10 min. Following substrate addition experimental set up different among the three formats: endpoint, spectra scan, and kinetics.
For endpoint experiments all fluorescent and unlabelled ligands were added to the cells and incubated for 5 min at 37 °C. Luminescent emission was then measured using a CLARIOstar microplate reader with monochromator set at 450–60 nm (Nluc), 540−60 nm (NBD) and 690–100 nm (SulfoCy5). BRET ratios were then calculated as either SulfoCy5 emission divided by NBD emission, SulfoCy5 emission divided by Nluc emission, or NBD emission divided by Nluc emission.
For spectra scan experiments all indicated fluorescent and unlabelled ligands were added to the cells and cells incubated for 5 min at 37 °C. Luminescence emissions were then measured from each well of the plate from 440 nm – 740 nm with a 5 nm resolution using a CLARIOstar microplate. Luminescent emission spectra were then normalised as a percentage of the maximal Nluc emission peak ( ~ 460 nm), then subtracted with the spectrum obtained in the presence of high concentrations of ligands competing for both binding sites to obtain specific BRET binding spectra.
In kinetic DISCo-BRET experiments plates were placed directly in a CLARIOstar plate reader set to 25 °C 10 min after Nano-Glo substrate addition. Luminescent measurements were then taken with three sequential measurements per well with the monochromator set to 450–60 nm (Nluc), 540 - 60 nm (NBD) and 690–100 nm (SulfoCy5) taken in 20 or 30 s intervals. After 5 min of background measurements, the plate reader was paused for the first indicated fluorescent ligand(s) addition, before immediately returning the plate to the reader to continue luminescence readings. After 5 min, the reader was again paused to add the second fluorescent ligand (association assays) or competing ligand(s) (dissociation assays), before immediately continuing the measurements for the indicated time. Non-specific control binding was obtained by adding the indicated competing ligand(s) 5 min prior to the addition of the first fluorescent ligand.

Sequence of FFA1 (O14842 whole entry): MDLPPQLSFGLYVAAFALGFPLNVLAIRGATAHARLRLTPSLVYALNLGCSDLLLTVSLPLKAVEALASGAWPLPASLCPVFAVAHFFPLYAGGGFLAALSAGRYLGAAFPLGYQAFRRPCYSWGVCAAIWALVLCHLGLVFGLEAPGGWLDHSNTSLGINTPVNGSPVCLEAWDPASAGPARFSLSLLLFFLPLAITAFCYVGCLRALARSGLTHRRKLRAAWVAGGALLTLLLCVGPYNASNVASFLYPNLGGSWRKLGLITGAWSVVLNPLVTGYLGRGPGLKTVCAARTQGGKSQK
Sequence of FFA1-Nluc (O14842 whole entry): as above

pEC50 [1]: 6.18±0.09
EMax [1]: 108±7%
Compound: COc1ccc(C(=O)N2CCC(CNC(=O)OC(C)(C)C)CC2)c(N2CCC(COc3cccc(C(CC(=O)O)C4CC4)c3)CC2)c1.O=C(O)C(F)(F)F (stereo not shown) [TUG-2450]

pEC50 [1]: 6.62±0.15
EMax [1]: 108±3%
Compound: COc1ccc(C(=O)NCC(C)(C)CNC(=O)OC(C)(C)C)c(N2CCC(COc3cccc(C(CC(=O)O)C4CC4)c3)CC2)c1.Cl (stereo not shown) [TUG-2457]

activity in Ca2+ assays ([1]; in words): loss of activity
Compound: COc1ccc(C(=O)N(CC(C)(C)C)c2cccc(C)n2)c(N2CCC(COc3cccc(C(CC(=O)NCCCNc4ccc([N+](=O)[O-])c5nonc45)C4CC4)c3)CC2)c1.O=C(O)C(F)(F)F (stereo not shown) [TUG-2598]
Ca2+ Response as a % of T360 Response ([1]; log[Ligand] -5): 7.1012% and 15.2717% and 1.6246% and 2.7551% and 3.0159% and 6.2735% and 0.8241% and 1.6284% and -0.5359%
Ca2+ Response as a % of T360 Response ([1]; log[Ligand] -5.5): 1.5741% and 1.0900% and 0.3918% and 0.5253% and 0.2798% and 0.0720% and 0.3603% and 1.4514% and 1.2937%
Ca2+ Response as a % of T360 Response ([1]; log[Ligand] -6): 0.7619% and 0.7231% and 2.0549% and 2.7546% and 3.4553% and 0.9789% and -0.3872% and -0.5141% and 0.0396%
Ca2+ Response as a % of T360 Response ([1]; log[Ligand] -6.5): 0.0902% and 2.5170% and 0.7188% and 6.6987% and 2.2005% and 0.1478% and -0.6706% and 0.0668% and 0.2619%
Ca2+ Response as a % of T360 Response ([1]; log[Ligand] -7): 0.1653% and 1.3781% and 1.4889% and 2.9024% and 3.7196% and 2.7339% and -0.5451% and -0.2430% and 0.9384%
Ca2+ Response as a % of T360 Response ([1]; log[Ligand] -8): 0.4880% and 2.3639% and 0.4031% and 3.7453% and 1.7322% and 2.3495% and 0.5137% and 0.8889% and 1.3866%
Ca2+ Response as a % of T360 Response ([1]; log[Ligand] -9): 4.5581% and 0.9272% and 0.1871% and 0.2081% and 3.1188% and 3.6549% and 0.3770% and -0.1948% and -0.1822%

Continued, compound first:

Compound: COc1ccc(C(=O)N(CC(C)(C)CNC(=O)OC(C)(C)C)c2ccccc2)c(N2CCC(COc3cccc(C(CC(=O)O)C4CC4)c3)CC2)c1.O=C(O)C(F)(F)F (stereo not shown) [TUG-2467]
pEC50 [1]: 6.78±0.02
EMax [1]: 124±9%

Compound: CCCN1C(=O)c2ccccc2[C@@H](C(=O)O)[C@@H]1c1ccc(OCc2cccc(-c3ccc(OCCOCCNC(=O)OC(C)(C)C)cc3C)c2)cc1 (racemic) [TUG-2744]
pIC50 DISCo-BRET SulfoCy5/NBD ([2]; 100 nM TUG-2591 and […] TUG-2597, one site model, NC = No competition): 6.2±0.07
Specific BRET (690/540), % of control ([2]; log[Ligand] -5): 39.83 % of control and 31.90 % of control and 49.72 % of control and 41.62 % of control and 42.27 % of control and 54.60 % of control and 24.29 % of control and 24.93 % of control
Specific BRET (540/450), % of control ([2]; log[Ligand] -5): 137.97 % of control and 140.19 % of control and 93.19 % of control and 74.76 % of control
Specific BRET (690/540), % of control ([2]; log[Ligand] -5.5): 37.03 % of control and 28.64 % of control and 34.65 % of control and 33.07 % of control and 31.01 % of control and 33.80 % of control and 21.95 % of control and 22.19 % of control
Specific BRET (540/450), % of control ([2]; log[Ligand] -5.5): 128.99 % of control and 129.28 % of control and 107.91 % of control and 104.11 % of control and 75.59 % of control and 66.37 % of control
Specific BRET (690/540), % of control ([2]; log[Ligand] -6): 54.48 % of control and 58.02 % of control and 68.62 % of control and 58.61 % of control and 60.18 % of control and 39.48 % of control and 47.55 % of control and 54.64 % of control
Specific BRET (540/450), % of control ([2]; log[Ligand] -6): 100.93 % of control and 117.25 % of control and 87.18 % of control and 77.69 % of control and 68.48 % of control and 67.29 % of control
Specific BRET (690/540), % of control ([2]; log[Ligand] -6.5): 81.72 % of control and 80.69 % of control and 83.13 % of control and 96.40 % of control and 81.56 % of control and 79.15 % of control and 75.55 % of control and 78.81 % of control
Specific BRET (540/450), % of control ([2]; log[Ligand] -6.5): 102.36 % of control and 114.39 % of control and 83.39 % of control and 83.86 % of control and 94.27 % of control and 96.38 % of control
Specific BRET (690/540), % of control ([2]; log[Ligand] -7): 91.79 % of control and 92.91 % of control and 97.64 % of control and 109.79 % of control and 98.51 % of control and 104.19 % of control and 93.40 % of control and 97.61 % of control
Specific BRET (540/450), % of control ([2]; log[Ligand] -7): 116.11 % of control and 107.80 % of control and 95.73 % of control and 91.61 % of control and 84.18 % of control and 85.41 % of control
Specific BRET (690/540), % of control ([2]; log[Ligand] -8): 103.08 % of control and 96.92 % of control and 107.31 % of control and 115.19 % of control and 106.98 % of control and 101.78 % of control and 103.46 % of control and 103.17 % of control
Specific BRET (540/450), % of control ([2]; log[Ligand] -8): 110.67 % of control and 105.51 % of control and 101.90 % of control and 100.00 % of control and 64.33 % of control and 77.86 % of control
Specific BRET (690/540), % of control ([2]; log[Ligand] -9): 95.62 % of control and 111.25 % of control and 100.79 % of control and 103.71 % of control and 132.11 % of control
Specific BRET (540/450), % of control ([2]; log[Ligand] -9): 110.95 % of control and 125.84 % of control and 113.61 % of control and 148.10 % of control and 60.11 % of control and 65.92 % of control
'bottom' of the IC50 curve, DISCo-BRET SulfoCy5/NBD ([2]; percentage of binding obtained in the absence of competing ligand, 100 nM TUG-2591 and […] TUG-2597): 26%
pKi DISCo-BRET SulfoCy5/NBD ([2]; using Kd TUG-2591 57 nM): 6.6±0.07
